Where a name gives a salt, the structure may show the parent alone.

This experiment concerns the target T1, IRAK4 (Homo sapiens, UniProt Q9NWZ3).
T1 construct: His (N); TEV cleavage site (N)
T1 sequence (Q9NWZ3 1-460): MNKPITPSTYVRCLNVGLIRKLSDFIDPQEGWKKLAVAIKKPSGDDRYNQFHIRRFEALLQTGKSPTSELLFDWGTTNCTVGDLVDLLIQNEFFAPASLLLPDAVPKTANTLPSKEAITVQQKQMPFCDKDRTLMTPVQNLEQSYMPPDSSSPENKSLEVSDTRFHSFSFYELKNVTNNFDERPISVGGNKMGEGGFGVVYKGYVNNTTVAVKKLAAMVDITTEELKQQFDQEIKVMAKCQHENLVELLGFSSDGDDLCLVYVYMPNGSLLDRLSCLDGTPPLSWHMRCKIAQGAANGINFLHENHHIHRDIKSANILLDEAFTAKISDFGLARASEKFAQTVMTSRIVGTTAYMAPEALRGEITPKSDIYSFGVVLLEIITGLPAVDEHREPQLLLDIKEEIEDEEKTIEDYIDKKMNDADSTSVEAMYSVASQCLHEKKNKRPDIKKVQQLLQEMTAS
As to the kind of experiment: IRAK4 Enzymatic Assay. It counts as biochemical. The following applies: His-TEV-IRAK4 20 ng/well, ATP 2 μM, STK1-biotin peptide 300 nM, 3 hours at 30° C., FlashPlate radioactivity. An outline of the steps: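 Recombinant His-TEV-tagged IRAK4 (20 ng/well) phosphorylates biotinylated STK1 peptide (300 nM) with 2 μM ATP plus [^33P]ATP, 3 h at 30 °C in pH 7.0 HEPES buffer with MgCl2 and MnCl2; compounds tested 20 μM to 1 nM. Reaction stopped with EDTA; incorporated radioactivity counted on streptavidin FlashPlates.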
As usually defined, the IC50 is the concentration that inhibits the measured activity by half. `Cn1cc(-c2cccc(-c3ncc(-c4cnn(C5CCN(C6CCOCC6F)CC5)c4)cn3)c2)cn1` (stereo not drawn) [Example 95, Cis-5-{1-[1-(3-Fluoro-tetrahydro-pyran-4-yl)-piperidin-4-yl]-1H-pyrazol-4-yl}-2-[3-(1-methyl-1H-pyrazol-4-yl)-phenyl]-pyrimidine]: the IC50 was 100 to 1000 nM.

Turning to `Cn1cc(-c2cccc(-c3ncc(-c4cnn(C5CCC[C@H](S(C)(=O)=O)C5)c4)cn3)c2)cn1` (single isomer, unassigned) [Example 279, 5-[1-(Cis-3-Methanesulfonyl-cyclohexyl)-1H-pyrazol-4-yl]-2-[3-(1-methyl-1H-pyrazol-4-yl)-phenyl]-pyrimidine], the 50% inhibitory concentration (IC50) is below 100 nM. With `Cc1cc(-c2cccc(-c3ncc(-c4cnn(C5CCOCC5)c4)cn3)c2)cnn1` [Example 138, 3-Methyl-5-(3-{5-[1-(tetrahydro-pyran-4-yl)-1H-pyrazol-4-yl]-pyrimidin-2-yl}-phenyl)-pyridazine] the figure was 100 to 1000 nM; with `Cn1cc(-c2cc(F)cc(-c3ncc(-c4cnn(C5CCNCC5)c4)cn3)c2)cn1` [Example 24, 2-[3-Fluoro-5-(1-methyl-1H-pyrazol-4-yl)-phenyl]-5-(1-piperidin-4-yl-1H-pyrazol-4-yl)-pyrimidine hydrochloride], 100 to 1000 nM; with `Cn1cc(-c2cccc(-c3ncc(-c4cnn(C5CCN([C@H]6CCOC[C@H]6F)CC5)c4)cn3)c2)cn1` [Example 167, 5-{1-[1-((3S,4S)-3-Fluoro-tetrahydro-pyran-4-yl)-piperidin-4-yl]-1H-pyrazol-4-yl}-2-[3-(1-methyl-1H-pyrazol-4-yl)-phenyl]-pyrimidine], 100 to 1000 nM. Take `Cn1cc(-c2cccc(-c3ncc(-c4cnn(CC(=O)O)c4)cn3)c2)cn1` [Example 8]: the IC50 lay within 1000 to 5000 nM. With `Cn1cc(-c2cccc(-c3ncc(-c4cnn([C@@H]5CCC[S@@+]([O-])C5)c4)cn3)c2)cn1` (racemic) [Example 235, 2-[3-(1-Methyl-1H-pyrazol-4-yl)-phenyl]-5-[1-(Trans-1-oxo-tetrahydro-thiopyran-3-yl)-1H-pyrazol-4-yl]-pyrimidine], the 50% inhibitory concentration (IC50) fell in the range of 100 to 1000 nM. Consider `Cn1cc(-c2cccc(-c3ncc(-c4cnn([C@@H]5CCNC[C@@H]5F)c4)cn3)c2)cn1` (relative stereo) [Example 265], for which the IC50 was 100 to 1000 nM. In the case of `Cn1cc(-c2cccc(-c3ncc(-c4cnn(C5CNC5)c4)cn3)c2)cn1` [Example 26, 5-(1-Azetidin-3-yl-1H-pyrazol-4-yl)-2-[3-(1-methyl-1H-pyrazol-4-yl)-phenyl]-pyrimidine hydrochloride], the IC50 fell in the range of 1000 to 5000 nM. On to `Cn1cc(-c2cccc(-c3ncc(-c4cnn([C@H]5CC[C@H](C(=O)N6CCOCC6)CC5)c4)cn3)c2)cn1` [Example 162, Trans-[4-(4-{2-[3-(1-Methyl-1H-pyrazol-4-yl)-phenyl]-pyrimidin-5-yl}-pyrazol-1-yl)-cyclohexyl]-morpholin-4-yl-methanone], for which the IC50 was below 100 nM. Consider `Cc1cc(-c2cccc(-c3ncc(-c4cnn([C@H]5CC[C@H](C(=O)N(C)C)CC5)c4)cn3)c2)cnn1` [Example 187, trans-4-(4-{2-[3-(6-Methyl-pyridazin-4-yl)-phenyl]-pyrimidin-5-yl}-pyrazol-1-yl)-cyclohexanecarboxylic acid dimethylamide], for which the IC50 was below 100 nM.

As to `CN(C)C(=O)[C@H]1CC[C@H](n2cc(-c3cnc(-c4cccc(-c5ccnnc5)c4)nc3)cn2)CC1` [Example 233, Trans-4-{4-[2-(3-Pyridazin-4-yl-phenyl)-pyrimidin-5-yl]-pyrazol-1-yl}-cyclohexanecarboxylic acid dimethylamide], the half-maximal inhibitory concentration (IC50) was 100 to 1000 nM. On to `Cn1cc(-c2cccc(-c3ncc(-c4cnn([C@H]5CC[C@H](N6CCOCC6)CC5)c4)cn3)c2)cn1` [Example 208, Trans-4-[4-(4-{2-[3-(1-Methyl-1H-pyrazol-4-yl)-phenyl]-pyrimidin-5-yl}-pyrazol-1-yl)-cyclohexyl]-morpholine], for which the IC50 is below 100 nM. The result for `Cn1cc(-c2cccc(-c3ncc(-c4cnn(C5CCOC5)c4)cn3)c2)cn1` (stereo not drawn) [Example 12, 2-[3-(1-Methyl-1H-pyrazol-4-yl)-phenyl]-5-[1-(tetrahydro-furan-3-yl)-1H-pyrazol-4-yl]-pyrimidine] reads 100 to 1000 nM; that for `COC1CN(C(=O)Cn2cc(-c3cnc(-c4cccc(-c5cnn(C)c5)c4)nc3)cn2)C1` [Example 40, 1-(3-Methoxy-azetidin-1-yl)-2-(4-{2-[3-(1-methyl-1H-pyrazol-4-yl)-phenyl]-pyrimidin-5-yl}-pyrazol-1-yl)-ethanone], 100 to 1000 nM. As to `c1cc(-c2cn[nH]c2)cc(-c2ncc(-c3cnn(C4CCNCC4)c3)cn2)c1` [Example 18, 5-(1-Piperidin-4-yl-1H-pyrazol-4-yl)-2-[3-(1H-pyrazol-4-yl)-phenyl]-pyrimidine hydrochloride], the IC50 is below 100 nM.

In the case of `COCCO[C@H]1CC[C@@H](n2cc(-c3cnc(-c4cccc(-c5cnn(C)c5)c4)nc3)cn2)CC1` [Example 218, cis-5-{1-[4-(2-Methoxy-ethoxy)-cyclohexyl]-1H-pyrazol-4-yl}-2-[3-(1-methyl-1H-pyrazol-4-yl)-phenyl]-pyrimidine], the concentration for half-maximal inhibition (IC50) fell in the range of 100 to 1000 nM.

In the case of `Cc1cc(-c2cccc(-c3ncc(-c4cnn(C5CCOCC5)c4)cn3)c2)ccn1` [Example 139, 2-[3-(2-Methyl-pyridin-4-yl)-phenyl]-5-[1-(tetrahydro-pyran-4-yl)-1H-pyrazol-4-yl]-pyrimidine], the IC50 is 100 to 1000 nM.

With `Cn1cc(-c2cccc(-c3ncc(-c4cnn([C@H]5CC[C@@H](O)CC5)c4)cn3)c2)cn1` [Example 196, Cis-4-(4-{2-[3-(1-Methyl-1H-pyrazol-4-yl)-phenyl]-pyrimidin-5-yl}-pyrazol-1-yl)-cyclohexanol], the IC50 fell in the range of 100 to 1000 nM. For `Cn1cc(-c2cccc(-c3ncc(-c4cnn(CCN5CCCC5)c4)cn3)c2)cn1` [Example 58, 2-[3-(1-Methyl-1H-pyrazol-4-yl)-phenyl]-5-[1-(2-pyrrolidin-1-yl-ethyl)-1H-pyrazol-4-yl]-pyrimidine], the IC50 lay in the range of 100 to 1000 nM. Consider `CC1COCCC1N1CCC(n2cc(-c3cnc(-c4cccc(-c5cnn(C)c5)c4)nc3)cn2)CC1` (stereo not drawn) [Example 275, 2-[3-(1-Methyl-1H-pyrazol-4-yl)-phenyl]-5-{1-[1-(3-methyl-tetrahydro-pyran-4-yl)-piperidin-4-yl]-1H-pyrazol-4-yl}-pyrimidine], for which the IC50 was below 100 nM.

`Cn1cc(-c2cccc(-c3ncc(-c4cnn(C5CCCC5O)c4)cn3)c2)cn1` (stereo not drawn) [Example 211, 2-(4-{2-[3-(1-Methyl-1H-pyrazol-4-yl)-phenyl]-pyrimidin-5-yl}-pyrazol-1-yl)-cyclopentanol]: the half-inhibitory concentration (IC50) fell in the range of 100 to 1000 nM. With `O=C(Cn1cc(-c2cnc(-c3cccc(-c4ccncc4)c3)nc2)cn1)N1CCOCC1` [Example 68, 1-Morpholin-4-yl-2-{4-[2-(3-pyridin-4-yl-phenyl)-pyrimidin-5-yl]-pyrazol-1-yl}-ethanone] the figure was 1000 to 5000 nM; with `Cn1cc(-c2cccc(-c3ncc(-c4cnn([C@H]5CC[C@H](N6CCOC6=O)CC5)c4)cn3)c2)cn1` [Example 255, 3-[4-(4-{2-[3-(1-Methyl-1H-pyrazol-4-yl)-phenyl]-pyrimidin-5-yl}-pyrazol-1-yl)-cyclohexyl]-oxazolidin-2-one], 100 to 1000 nM.

`CNC(=O)[C@H]1CCC[C@H](n2cc(-c3cnc(-c4cccc(-c5cnn(C)c5)c4)nc3)cn2)C1` (relative stereo) [Example 181, trans-3-(4-{2-[3-(1-Methyl-1H-pyrazol-4-yl)-phenyl]-pyrimidin-5-yl}-pyrazol-1-yl)-cyclohexanecarboxylic acid methylamide]: the concentration for half-maximal inhibition (IC50) was 100 to 1000 nM. On to `Cn1cc(-c2cccc(-c3ncc(-c4cnn(CC(F)F)c4)cn3)c2)cn1` [Example 67, 5-[1-(2,2-Difluoro-ethyl)-1H-pyrazol-4-yl]-2-[3-(1-methyl-1H-pyrazol-4-yl)-phenyl]-pyrimidine], for which the IC50 was 100 to 1000 nM. With `Cn1cc(-c2cccc(-c3ncc(-c4cnn(CC(O)c5ccccn5)c4)cn3)c2)cn1` (stereo not drawn) [Example 215, 2-(4-{2-[3-(1-Methyl-1H-pyrazol-4-yl)-phenyl]-pyrimidin-5-yl}-pyrazol-1-yl)-1-pyridin-2-yl-ethanol], the IC50 was in the range of 100 to 1000 nM. Take `Cc1nn(C)cc1-c1cccc(-c2ncc(-c3cnn(C4CCNCC4)c3)cn2)c1` [Example 14, 2-[3-(1,3-Dimethyl-1H-pyrazol-4-yl)-phenyl]-5-(1-piperidin-4-yl-1H-pyrazol-4-yl)-pyrimidine hydrochloride]: the 50% inhibitory concentration (IC50) is 1000 to 5000 nM. For the molecule `CN1C[C@]2(CC[C@@H](n3cc(-c4cnc(-c5cccc(-c6cnn(C)c6)c5)nc4)cn3)CC2)CC1=O` [Example 262, cis-2-Methyl-8-(4-{2-[3-(1-methyl-1H-pyrazol-4-yl)-phenyl]-pyrimidin-5-yl}-pyrazol-1-yl)-2-aza-spiro[4.5]decan-3-one], the concentration for half-maximal inhibition (IC50) is below 100 nM.

Turning to `Cn1cc(-c2cccc(-c3ncc(-c4cnn(CC(O)CO)c4)cn3)c2)cn1` (stereo not drawn) [Example 212, 3-(4-{2-[3-(1-Methyl-1H-pyrazol-4-yl)-phenyl]-pyrimidin-5-yl}-pyrazol-1-yl)-propane-1,2-diol], the IC50 was 100 to 1000 nM.

Values taken from patent US9216991B2 (Ares Trading S.A., priority 2012, dated 2015).
